{
  "source": "patent US12252712B2",
  "about": "“Use of engineered liver tissue constructs for modeling liver disorders” (Organovo, Inc., priority 2017, dated 2025)",
  "format_in_all_cases": "cell-based, human",
  "key": {"[1]": {"test_system": "bioprinted liver tissue construct", "assay": "Steatosis induction in bioprinted liver tissue constructs (H&E, PLIN-5, Oil Red O)", "excerpt": "3D bioprinted liver tissues comprised of cryopreserved primary human hepatocytes (Life Technologies, Carlsbad, CA, USA), hepatic stellate cells (ScienCell; Carlsbad, CA, USA), and HUVEC cells (Becton Dickinson; Tewksbury, MA, USA) were bioprinted directly into 24-well Transwell plates (FIG. 20A) using the Organovo NovoGen Bioprinter Instrument (Organovo, San Diego, CA, USA).\nBriefly, hepatic stellate cells and HUVEC cells were propagated per the manufacturer's instructions prior to tissue fabrication. Cryopreserved hepatocytes were thawed and prepared for use per the manufacturer's instructions. Separate high density bioinks comprising parenchymal cells (100% cellular paste, generated via compaction having hepatocyte cells) or nonparenchymal cells (150e6 cells/mL of endothelial cells and hepatic stellate cells formulated in hydrogel) were prepared and loaded into separate heads of the NovoGen Bioprinter Instrument within a standard biosafety cabinet. A computer script was then executed to deposit the bioinks in a two-compartment planar geometry (2 mm^2×0.5 mm) onto the membranes of standard 24-well 0.4 μm transwell culture inserts (Corning, Tewksbury, MA USA) via continuous deposition microextrusion with the non-parenchymal cells comprising the border regions of each compartment and the parenchymal cells filling each compartment. Following fabrication, the tissues were fed daily with 600 μL of 3D Liver Tissue Media, consisting of DMEM supplemented with Primary Hepatocyte Maintenance Supplements (Life Technologies, Carlsbad, CA, USA) and EGM-2 (Lonza, Basel, Switzerland), and incubated at 37° C. under humidified atmospheric conditions supplemented with 5% CO2. Tissues were allowed to mature in culture for at least three days following fabrication prior to initiation of experimentation, and were substantially free of pre-formed scaffold at the time of use. For the one month timecourse, tissues were fed daily for a total of 28 days post-fabrication.\nThe bioprinted liver tissue construct of Example 6 was treated with nutrient-mediated accumulation to induce a steatosis phenotype. Specifically, to induce steatosis, a first liver tissue construct was treated with palmitic acid (PA) of varying concentrations (200 uM PA or 500 uM PA) daily for 3 weeks in the presence of high glucose media (DMEM-HG). A second liver tissue construct was treated with a 5% and 10% lipid mix of oleic acid (OC) to palmitic acid (PA) at a ratio of 2:1 daily for 3 weeks in the presence of high glucose media (DMEM-HG). Optionally, insulin or genipin (1 uM or 5 uM) can be used to stimulate fatty acid uptake into hepatocytes and enhance the fatty phenotype. […]\nThe technical challenge is to make a 3D, bioprinted liver tissue construct having the disorder without adversely affecting hepatocyte function or tissue health (albumin, LOH activity, ALT), which most closely recapitulates the benign nature of steatosis commonly observed in clinical steatosis. Tissue health were assessed at 7 day intervals using biochemical assays that measure hepatocellular function (i.e., albumin) and injury (i.e., LOH and ALT) with n≥5 per treatment group. Greater than 5% fatty infiltrate into hepatocytes is considered steatotic; therefore, morphometric and biochemical assays were conducted to quantify hepatic lipid content. Tissue morphology and extracellular matrix (ECM) deposition were assessed using H&E and Trichrome staining, respectively, at 7 day intervals. […]"}, "[2]": {"test_system": "immune competent bioprinted liver tissue constructs", "assay": "NASH induction in bioprinted liver tissue constructs, histology (H&E, trichrome, desmin/α-SMA, CK18)", "protocol": "Kupffer cells (KCs) were added to the parenchymal region in the bioprinted liver tissue construct of Example 6.\nSeparate high density bioinks comprising parenchymal cells (100% cellular paste, generated via compaction having human hepatocyte cells and human Kupffer cells) or nonparenchymal cells (150e6 cells/mL of endothelial cells and hepatic stellate cells formulated in hydrogel) were prepared and loaded into separate heads of the NovoGen Bioprinter™ Instrument within a standard biosafety cabinet. A computer script was then executed to deposit the bioinks in a two-compartment planar geometry (2 mm^2×0.5 mm) onto the membranes of standard 24-well 0.4 μm transwell culture inserts (Corning, Tewksbury, MA USA) via continuous deposition microextrusion with the non-parenchymal cells comprising the border regions of each compartment and the parenchymal cells filling each compartment.\nHere, the liver tissue construct having KCs was treated with 100 μg/ml of LPS and 500 uM palmitic acid daily for 21 days. LPS was used to activate the KCs in order to initiate inflammation. In turn, activated KCs release factors that activate hepatic stellate cells, which initiate fibrosis. […] Untreated tissues with and without KCs were used as controls."}, "bioprinted liver tissues": {"test_system": "bioprinted liver tissues", "assay": "Drug safety: alanine transferase (ALT) in culture medium of bioprinted liver tissues", "conditions": "diseased (NASH-induced with 12.5 mM fructose and 500 uM PA) tissue treated with OCA versus non-diseased tissue", "description": "The assessment of drug safety was also investigated using the bioprinted liver tissue constructs. Non-diseased (vehicle-treated) or diseased (NASH-induced with 12.5 mM fructose and 500 uM PA) bioprinted liver tissues were treated with OCA, followed by measurement of alanine transferase (ALT) in the culture medium, a liver enzyme elevated with hepatocellular injury. […] Significance was determined by One-way ANOVA with Dunnets Multiple Comparisons Test, with the increase in ALT levels for diseased tissue following OCA treatment having a P<0.0001 as compared to diseased tissue without OCA treatment. This provides a proof of concept for application of the NASH model in assessment of differential toxicity."}, "[3]": {"test_system": "bioprinted liver tissue constructs", "assay": "Caspase cleaved CK18 fragments (apoptosis) in bioprinted liver tissue constructs"}, "[4]": {"test_system": "bioprinted hepatic stellate cell tissues", "assay": "Stimulation of bioprinted hepatic stellate cell tissues with TGF-β1", "description": "Cylindrical bio-ink comprising relevant heterogeneous (i.e., polytypic) cell populations were prepared. Physiologically-relevant populations (e.g., hepatic stellate cells (hSC) and human aortic endothelial cells (EC)) of cells were combined at specific ratios to generate proper bio-ink. Cells were maintained and propagated under standard laboratory conditions and cells were cultured in media either purchased from the same vendor as the cells, or media comprising components typically found in the primary literature to be conducive to standard cell culture practices for those particular cell types. Cell processing for bio-ink preparation was as follows: briefly, cells were liberated from standard tissue culture plastic by washing with cation-free phosphate buffered saline (PBS) and then exposed to 0.1-0.05% trypsin (Invitrogen). Liberated cells were then washed in serum-containing media, collected, counted, and combined in an appropriate ratio for the stimulation assay or experiment being conducted, and pelleted by centrifugation. Supernatant was then removed and the cell pellet was aspirated into a glass microcapillary, which was then submerged in complete media for approximately 15 to 20 minutes. This cylindrical bio-ink structure was then extruded into a non cell-adherent hydrogel mold, containing linear channels and held for 2 to 18 hours. Cylindrical bio-ink containing hSC: EC was then used to fabricate bioprinted tissue constructs and maintained and/or matured in a humidified chamber. Tissue segments were fabricated with initial dimensions of 1.25 mm×8 mm×0.25 mm (W×L×H). […]\nThe bioprinted neotissues were then submerged in serum-containing complete cell culture media and placed in a standard humidified chamber, supplemented with 5% CO2 for maturation. […] The bioprinted tissues were evaluated for characteristics such as, but not limited to for tissue morphology, cell organization, extracellular matrix production, cell proliferation, cell viability, and construct integrity. […]"}, "[5]": {"test_system": "bioprinted liver tissue construct with Kupffer cells", "assay": "Inflammatory cytokine release from bioprinted liver tissue constructs", "conditions": "co-treatment of LPS at 1 ug/mL with NASH induction, 14 days (FIG. 33)", "description": "Tissue health were assessed at 7 day intervals using biochemical assays on spent media that measure hepatocellular function as outlined in Aim 1 (n≥5/group). Histological endpoints used to assess tissue morphology and composition (H&E, CD31, Desmin, E-cadherin, Albumin), ECM deposition (trichrome), hepatic stellate cell activation (desmin, a-smooth muscle actin ratio), lipid vacuoles (perilipin) and lipid content (Oil red 0) were measured at weekly intervals. In order to determine baseline cytokine production in response to lipid treatment, inflammatory cytokine release were measured at 7 day intervals via chemiluminescence with the V-Plex Pro-Inflammatory Panel (Meso Scale Discovery, Rockville, MD), which measures TNF-α, IL-113, IL-6, IL-8, IL-4, IL-2, IL-13, IL-12p70, IL-10, and interferon-y (IFN-y)."}},
  "data": [
    {"molecule": "COC(=O)C1=CO[C@@H](O)[C@@H]2C(CO)=CC[C@H]12", "note": "[Genipin]", "values": [
      {"measurement": "lipid accumulation fold change (Oil Red O, Image J)", "setting": "[1]; 21 days, 5 μM Genipin added to 500 μM PA, vs 500 μM PA alone", "value": "did not further increase lipid accumulation"}
    ]},
    {"molecule": "CCCCCCCC/C=C\\CCCCCCCC(=O)O", "note": "[OA, Oleic Acid]", "values": [
      {"measurement": "fibrosis (TCM)", "setting": "[2]; 7 days, 1 mM (FIG. 28A)", "value": "less fibrosis"},
      {"measurement": "macrovesicular steatosis (H&E)", "setting": "[2]; 7 days, 1 mM (FIG. 28A)", "value": "increased incidence of macrovesicular steatosis"},
      {"measurement": "lipid droplet (LD) size", "setting": "[1]; 14 days of treatment (FIG. 27)", "value": "larger sizes of LD's"}
    ]},
    {"molecule": "CC[C@H]1[C@@H](O)[C@@H]2[C@H](CC[C@]3(C)[C@@H]([C@H](C)CCC(=O)O)CC[C@@H]23)[C@@]2(C)CC[C@@H](O)C[C@@H]12", "note": "[OCA, Obeticholic Acid]", "values": [
      {"measurement": "alanine transferase (ALT) in the culture medium", "setting": "bioprinted liver tissues", "value": "increased ALT"}
    ]},
    {"molecule": "O=C(CO)[C@@H](O)[C@H](O)[C@H](O)CO", "note": "[fructose]", "values": [
      {"measurement": "fibrosis (TCM)", "setting": "[2]; 14 days, fructose 20 mM, OA or OA:PA 0.5 mM, vs controls (FIG. 32)", "value": "increased fibrosis"},
      {"measurement": "fibrosis (TCM)", "setting": "[2]; 21 days, fructose 12.5 mM, PA 0.5 mM, vs controls (FIG. 31)", "value": "increased fibrosis"}
    ]},
    {"molecule": "CCCCCCCCCCCCCCCC(=O)O", "note": "[palmitic acid]", "values": [
      {"measurement": "fibrosis (TCM)", "setting": "[2]; 7 days, 1 mM (FIG. 28A)", "value": "increased incidence"},
      {"measurement": "putative ballooned hepatocytes (H&E)", "setting": "[2]; 7 days, 1 mM (FIG. 28A)", "value": "increased incidence of putative ballooned hepatocytes"},
      {"measurement": "caspase cleaved cytokine (CK) 18 fragments", "setting": "[3]; 7 days, 1 mM, vs all other FFA treatments and untreated controls (FIG. 28B)", "value": "significantly higher levels"},
      {"measurement": "cytotoxicity", "setting": "[3]; FIG. 28(B)", "value": "increased cytotoxicity"},
      {"measurement": "steatotic phenotype (incidence and size of lipid droplets, PLIN 5 staining)", "setting": "[1]; 200 μM and 500 μM, daily for 21 days, vs untreated controls", "value": "induces a steatotic phenotype"},
      {"measurement": "lipid accumulation fold change (Oil Red O, Image J)", "setting": "[1]; 21 days, 500 μM vs 200 μM (FIG. 25B)", "value": "greater accumulation of lipid droplets"},
      {"measurement": "lipid accumulation (Oil Red O, morphometric quantification)", "setting": "[1]; 21 days, 200 and 500 uM, vs controls (FIG. 22)", "value": "significant dose-dependent increase in lipid accumulation"}
    ]},
    {"molecule": "TGF-β1: cytokine used to elicit a tissue-specific response", "values": [
      {"measurement": "cell density (Trichrome)", "setting": "[4]; 0-50 ng/mL (FIG. 15)", "value": "dramatic decreases in cell density"},
      {"measurement": "collagen deposition and construct size (Trichrome)", "setting": "[4]; 0-50 ng/mL (FIG. 15)", "value": "increases in collagen deposition and construct size"},
      {"measurement": "tissue outgrowth formation (gross observation)", "setting": "[4]; increasing concentrations 0, 1, 10, 50 ng/mL (FIG. 15)", "value": "increases in tissue outgrowth formation"}
    ]},
    {"molecule": "lipopolysaccharide [LPS]", "values": [
      {"measurement": "putative hepatocellular ballooning", "setting": "[2]; 21 days of PA and fructose (12.5 mM) with constitutive 10 ug/mL treatment, vs controls (FIG. 43)", "value": "also observed"},
      {"measurement": "fibrosis and hepatocellular ballooning", "setting": "[2]; 21 days of PA and fructose (12.5 mM) with constitutive 100 ug/mL LPS (FIG. 43)", "value": "high degree of fibrosis with putative hepatocellular ballooning"},
      {"measurement": "cytokine levels (IL-10, IL-1β, TNF-α, IL-6)", "setting": "[5]", "value": "significantly increased above NASH induction only"}
    ]}
  ]
}
